Literature values as cited in patent US20020171063A1, “Reduced toxicity ethylene glycol-based antifreeze/heat transfer fluid concentrates and antifreeze/heat transfer fluids” (priority 2001, published 2002).

Test system: laboratory rats

SMILES	acute oral toxicity (LD50)
CC(O)CO (centres unmarked) [PG, 1,2-propanediol]	20,000 mg/kg
O.O.O.O.O=B[O-].[Na+] [metaborate]	1,700 mg/kg
